Experimental data taken from paper PMC9959269, “Pyrrolyl and Indolyl α-γ-Diketo Acid Derivatives Acting as Selective Inhibitors of Human Carbonic Anhydrases IX and XII” (Pharmaceuticals, 2023).
Where “and” joins values, the source holds several entries; their conditions need not be identical. Equal entries are not always repeated.

Tests used:
hCA I = target: T1, hCA I (Homo sapiens, UniProt P00915); test: Stopped flow CO2 hydrase assay, hCA I inhibition; assay type: biochemical; conditions: stopped flow technique, means ± SEM of 3 different assays, recombinant hCA I; for Ki: read-out: Ki CA I
T1 construct: made in house
Method: (§1) An Applied Photophysics stopped-flow instrument has been used for assaying the CA catalyzed CO2 hydration activity. Phenol red (at a concentration of 0.2 mM) has been used as an indicator, working at the absorbance maximum of 557 nm, with 20 mM Hepes (pH 7.5) as buffer and 20 mM Na2SO4 (for maintaining constant the ionic strength), following the initial rates of the CA-catalyzed CO2 hydration reaction for a period of 10−100 s. The CO2 concentrations ranged from 1.7 to 17 mM for the determination of the kinetic parameters and inhibition constants. […] The uncatalyzed rates were determined in the same manner and subtracted from the total observed rates. Stock solutions of inhibitor (0.1 mM) were prepared in distilled−deionized water and dilutions up to 0.01 nM were performed thereafter with the assay buffer. Inhibitor and enzyme solutions were preincubated together for 15 min at room temperature before assay to allow for the formation of the E−I complex. The inhibition constants were obtained by nonlinear least-squares methods using PRISM 3 and the Cheng−Prusoff equation, as reported earlier, and they represent the mean from at least three different determinations. […] All hCA isoforms were recombinant ones obtained in-house as reported earlier.

hCA XII = target: T2, hCA XII (Homo sapiens, UniProt O43570); test: Stopped flow CO2 hydrase assay, hCA XII inhibition; assay type: biochemical; conditions: for Ki: stopped flow technique, means ± SEM of 3 different assays, recombinant hCA XII, read-out: Ki CA XII
T2 construct: made in house
Method: as §1

hCA IX = target: T3, hCA IX (Homo sapiens, UniProt Q16790); test: Stopped flow CO2 hydrase assay, hCA IX inhibition; assay type: biochemical; conditions: for Ki: stopped flow technique, means ± SEM of 3 different assays, recombinant hCA IX, read-out: Ki CA IX; for Selectivity for CA IX and XII over hCAs I and II: from Ki values
T3 construct: made in house
Method: as §1

hCA II = target: T4, hCA II (Homo sapiens, UniProt P00918); test: Stopped flow CO2 hydrase assay, hCA II inhibition; assay type: biochemical; conditions: stopped flow technique; means ± SEM of 3 different assays; recombinant hCA II; read-out: Ki CA II
T4 construct: made in house
Method: as §1

colon carcinoma HT-29 = test: In vitro proliferation assay (sulforhodamine B), HT-29; assay type: cell-based; conditions: Homo sapiens, ± SD
Method: (§2) The effects of selected compounds were also examined on the proliferation of four cell lines from different human solid tumors overexpressing hCA isoforms IX and XII: triple negative breast cancer MDA-MB231, colon carcinoma HT-29, tongue squamous carcinoma SCC-15 and pharynx squamous carcinoma FaDu. The cell lines were treated with 5, 10, 20, 50, 100 µM of each single compound for 24 and 48 h. In parallel, the proliferation assay was performed also on HaCaT, a human non-transformed keratinocyte cell line, with each compound used at the same concentrations and times already indicated. The median values from three different proliferation assays for each compound and for each cell line were calculated and their significance was evaluated.
(§3) The following human tumor cell lines were utilized in the present study: triple-negative breast cancer MDA-MB231, colon carcinoma HT-29, tongue squamous cell carcinoma SCC-15 and pharynx squamous cell carcinoma FaDu. In addition, a spontaneously transformed keratinocyte cell line from human skin HaCaT was used as control of non-transformed cells. All cell lines were purchased from the American Type Culture Collection (Manassas, VA, USA).
(§4) The cell lines were grown in RPMI 1640 medium supplemented with 10% fetal calf serum (FCS), 2 mM glutamine and 50 U/mL penicillin–streptomycin.
(§5) All compounds were solubilized in dimethylsulfoxide (DMSO) (Sigma) for a 10 mM stock solution and utilized to final concentrations from 5 to 100 μM for 24 and 48 h. Control cells were treated with equivalent amounts of DMSO in every experiment.
(§6) To determine cytotoxicity, a sulforhodamine B colorimetric assay was performed: 5 × 10^3 cells were plated on 96-well plates, grown for 24 h and treated with different concentrations of each compound for 24 and 48 h. Cells were then fixed with 50% trichloroacetic acid for 1 h at 4 °C and stained for 30 min (min) at room temperature (RT) with 0.4% sulforhodamine B in 1% acetic acid. Excess dye was removed by washing four times with 1% acetic acid. Protein-bound dye was dissolved in 10 mM Tris pH 10 and optical density was determined at 510 nm using a microplate reader.

[1] = system: pharynx squamous carcinoma FaDu; test: In vitro proliferation assay (sulforhodamine B), FaDu; assay type: cell-based; conditions: Homo sapiens, ± SD
Method: as §2, §3, §4, §5, §6

[2] = system: MDA-MB231, HT-29, SCC-15 and FaDu tumor cell lines; test: In vitro proliferation assay, four tumor cell lines taken together; assay type: cell-based, human; conditions: for Antiproliferative activity (in words): four tumor cell lines, 5-100 µM, 24 and 48 h; for Lowest concentration determining a significant decrease in alive cells: tumor cell lines, 24 h
Method: as §2, §3, §4, §5, §6

[3] = system: triple negative breast cancer MDA-MB231; test: In vitro proliferation assay (sulforhodamine B), MDA-MB231; assay type: cell-based; conditions: Homo sapiens, MDA-MB-231, ± SD
Method: as §2, §3, §4, §5, §6

[4] = system: tongue squamous carcinoma SCC-15; test: In vitro proliferation assay (sulforhodamine B), SCC-15; assay type: cell-based; conditions: Homo sapiens, ± SD
Method: as §2, §3, §4, §5, §6

HaCaT = test: In vitro proliferation assay (sulforhodamine B), HaCaT non-transformed keratinocytes; assay type: cell-based, human; conditions: 24 and 48 h, no effect except at a very high concentration, above 100 µM
Method: as §2
The following human tumor cell lines were utilized in the present study: triple-negative breast cancer MDA-MB231, colon carcinoma HT-29, tongue squamous cell carcinoma SCC-15 and pharynx squamous cell carcinoma FaDu. […]
To determine cytotoxicity, a sulforhodamine B colorimetric assay was performed: 5 × 10^3 cells were plated on 96-well plates, grown for 24 h and treated with different concentrations of each compound for 24 and 48 h. […] Protein-bound dye was dissolved in 10 mM Tris pH 10 and optical density was determined at 510 nm using a microplate reader.

T2 sequence (O43570 25-354): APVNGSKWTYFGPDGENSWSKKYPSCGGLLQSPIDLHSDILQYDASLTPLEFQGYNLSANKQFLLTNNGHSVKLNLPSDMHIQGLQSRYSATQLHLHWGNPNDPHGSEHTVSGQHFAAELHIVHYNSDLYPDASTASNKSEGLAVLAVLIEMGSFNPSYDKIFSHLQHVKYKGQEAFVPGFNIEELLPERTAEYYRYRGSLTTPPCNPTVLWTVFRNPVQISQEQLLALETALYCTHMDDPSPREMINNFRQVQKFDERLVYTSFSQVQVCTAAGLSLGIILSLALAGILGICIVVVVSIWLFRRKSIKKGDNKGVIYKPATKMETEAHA
T1 sequence (P00915 whole entry): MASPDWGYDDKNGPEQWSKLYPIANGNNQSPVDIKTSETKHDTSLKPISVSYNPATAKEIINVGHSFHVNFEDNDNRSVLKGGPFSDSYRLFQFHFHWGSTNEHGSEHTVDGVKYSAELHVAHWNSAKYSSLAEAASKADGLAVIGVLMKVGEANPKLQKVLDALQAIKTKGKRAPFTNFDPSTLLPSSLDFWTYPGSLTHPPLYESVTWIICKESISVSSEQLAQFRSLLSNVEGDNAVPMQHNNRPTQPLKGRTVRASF

Structure (SMILES)	Ki (hCA I) [µM]	Ki (hCA XII)	Ki (hCA IX)	Ki (hCA II) [µM]	EC50 (colon carcinoma HT-29; 24 h treatment) [µM]	EC50 (colon carcinoma HT-29; 48 h treatment) [µM]	EC50 ([1]; 24 h treatment) [µM]	EC50 ([1]; 48 h treatment) [µM]	Antiproliferative activity (in words) [2]	EC50 ([3]; 24 h treatment) [µM]	EC50 ([3]; 48 h treatment) [µM]	Selectivity for CA IX and XII over hCAs I and II (hCA IX)	EC50 ([4]; 24 h treatment) [µM]	EC50 ([4]; 48 h treatment) [µM]	Ki CA I (hCA I)	Increase in activity against CA XII relative to diketobutanoic analogue 3a (hCA XII; ratio of Ki values, 5 vs 3a)	Increase in activity against CA IX relative to diketobutanoic analogue 3a (hCA IX; ratio of Ki values, 5 vs 3a)	Effect on proliferation of HaCaT cells (HaCaT)	Lowest concentration determining a significant decrease in alive cells [2] [µM]
O=C(/C=C(\O)C(=O)O)/C=C/c1cccn1Cc1ccc(F)cc1 [Compound 1a]	81.9 ± 6	1000 ± 100 nM	2000 ± 100 nM	14.6 ± 0.9															
O=C(/C=C(\O)C(=O)O)/C=C/c1cccn1Cc1ccccc1F [Compound 1b]	89.6 ± 4.8	2200 ± 100 nM	2500 ± 100 nM	14 ± 0.8	92 ± 9.9	75 ± 8.2	98 ± 8.6	90 ± 9.3	low efficacy										
Cc1ccc(Cn2cccc2/C=C/C(=O)/C=C(\O)C(=O)O)cc1 [Compound 1c]	79 ± 3.9	900 ± 70 nM	800 nM and 820 nM	44.4 ± 2.6	115 ± 10.8	48 ± 4.1	59 ± 4.5	17 ± 0.9	significant antiproliferative activity	85 ± 9.1	73 ± 5.5	two orders of magnitude selective	96 ± 8.5	53 ± 5.9					
O=C(/C=C(\O)C(=O)O)/C=C/c1cc(C(=O)c2ccccc2)c[nH]1 [Compound 1d]	72.5 ± 5.1	1100 ± 100 nM	1400 ± 100 nM	38.7 ± 2															
CCOC(=O)/C(O)=C/C(=O)/C=C/c1cccn1Cc1ccc(F)cc1 [Compound 2a]	> 100	83600 ± 5400 nM	90100 ± 4700 nM	> 100															
CCOC(=O)/C(O)=C/C(=O)/C=C/c1cccn1Cc1ccccc1F [Compound 2b]	> 100	80500 ± 6100 nM	23700 ± 1600 nM	> 100															
CCOC(=O)/C(O)=C/C(=O)/C=C/c1cccn1Cc1ccc(C)cc1 [Compound 2c]	> 100	89300 ± 5300 nM	90800 ± 4600 nM	> 100															
O=C(O)/C(O)=C/C(=O)c1cn(Cc2ccc(F)cc2)cc1-c1ccccc1 [Compound 3a]	> 100	300 nM and 330 nM	1400 ± 100 nM	77.6 ± 4.5											inactive				
O=C(O)/C(O)=C/C(=O)c1ccn(Cc2ccc(F)cc2)c1 [Compound 3b]	50.9 ± 4.1	7900 ± 600 nM	18400 ± 1200 nM	54.7 ± 2.9															
CCOC(=O)/C(O)=C/C(=O)c1cn(Cc2ccc(F)cc2)cc1-c1ccccc1 [Compound 4a]	> 100	89200 ± 5200 nM	57300 ± 2800 nM	> 100															
CCOC(=O)/C(O)=C/C(=O)c1ccn(Cc2ccc(F)cc2)c1 [Compound 4b]	> 100	71500 ± 4300 nM	> 100000 nM	> 100															
O=C(/C=C(\O)C(=O)O)/C=C/c1cn(Cc2ccc(F)cc2)cc1-c1ccccc1 [Compound 5]	> 100	200 nM and 240 nM	300 nM and 320 nM	62.5 ± 3.6	98 ± 11	21 ± 1.6	103 ± 11.4	23 ± 2.8	significant antiproliferative activity	120 ± 15.7	105 ± 13.2	two orders of magnitude selective	102 ± 9.7	58 ± 6.2	inactive	about 1.5 times	more than 4 times		
CCOC(=O)/C(O)=C/C(=O)/C=C/c1cn(Cc2ccc(F)cc2)cc1-c1ccccc1 [Compound 6]	> 100	89000 ± 6100 nM	43100 ± 2500 nM	> 100															
COc1ccc(Cn2cc(/C=C/C(=O)/C=C(\O)C(=O)O)c3ccccc32)cc1 [Compound 7]	91.7 ± 7.5	800 nM and 830 nM	1100 ± 100 nM	36.5 ± 1.9	47 ± 5	30 ± 2.8	51 ± 4.7	22 ± 1.2		21 ± 1.8	12 ± 1.1		48 ± 3.9	17 ± 0.8				no significant effect	10
CCOC(=O)/C(O)=C/C(=O)/C=C/c1cn(Cc2ccc(OC)cc2)c2ccccc12 [Compound 8]	> 100	92000 ± 6000 nM	80100 ± 5300 nM	> 100	75 ± 8.8	44 ± 2.3	41 ± 3.3	18 ± 0.7		23 ± 1.6	17 ± 0.9		44 ± 4.1	21 ± 1.9				no significant effect	10
